The results in this text go back to US20200377510A1, “DERIVATIVES OF PIPERLONGUMINE AND USES THEREOF” (Auransa Inc., priority 2019, published 2020).

SMILES strings stand for the structures. Read-outs that look alike come from different tables or passages of the source.

A short description of series [1]: In vivo pharmacokinetic analysis (plasma). The settings on record: female, Balb/C, mouse, mice, read-out: Plasma half-life t1/2 (converted). The protocol:
Age 8 to 9 weeks Balb/C female mice were used for this study. The mice were maintained in a special pathogen-free environment and in disposable cages. Animal room was set to maintain temperature and relative humidity at 23° C.±3° C. and 55%±15%, respectively. Housing room was on a 12:12 light/dark cycle. Water was supplied ad libitum to each cage via water bottles. All mice were fed rodent diet with 18% protein. All animals were weighed before commencement of the study.
Compound 1 was stored at 4° C. protected from light. Dosing solutions were used within 2 hours of preparation. Compound 1 was formulated within 2 hours prior to dosing by adding the pre-calculated volume of PEG 400 (40% of total solution volume). Formulated compound 1 was vortexed and sonicated until a clear solution was formed. To this clear formulation, saline (60% of total solution volume) was added and vortexed until a clear solution was formed. The Compound 1 solution was filtered using a sterile syringe filter (0.2 μm coming filter). All Compound 1 solutions were mixed thoroughly prior to pulling up into syringes and prior to dosing. 12 mice were dosed intravenously at 5 mg/kg. 12 mice were dosed intraperitoneally at 10 mg/kg. 12 mice were dosed orally at 10 mg/kg. Animals were sacrificed for blood and organs sampling. Under isoflurane anesthesia, blood was collected via retro-orbital route. Blood samples were then centrifuged for 5 minutes at a minimum of 2,000×g. Plasma supernatant (a minimum of 50 μL or as much as feasible to collect) was collected. Plasma was stored at −80° C.
Bioanalytical analysis of plasma levels of Compound 1 was performed by mass spectrometry. Calibration standards were prepared by spiking the test compound into blank plasma. Calibrator concentrations were 5,000, 2,000, 1,000, 200, 100, 20, 10, 2 and 1 ng/mL. Calibration standard samples were processed along with the test samples.
Twenty μL aliquots of plasma test samples were treated with 100 μL of methanol: acetonitrile (5:95 v:v) containing internal standard (12.5 ng/mL verapamil). The mixtures were vortexed on a shaker for 15 minutes and subsequently centrifuged at 4,000 rpm for 15 minutes. An aliquot of 50 μL of the supernatant was mixed with 100 μL of water with 0.1% formic acid for injection to the LC/MS/MS (liquid chromatography/tandem-mass spectrometry).
The concentration of Compound 1 was determined by a UPLC-TIS-MS-MS method (ultra performance liquid chromatography—turbo ion spray—tandem mass spectrometry). The UPLC comprised a Shimadzu LC-30AD HPLC (high performance liquid chromatography). Chromatographic separation was achieved using a Waters UPLC column (Acquity UPLC BEH C18, 50×2.1 mm, 1.7 μM). Mobile phase A was water with 0.1% formic acid; mobile phase B was acetonitrile with 0.1% formic acid. The gradient program was as follows: 20% B (0-0.2 min), 20-95% B (0.2-1.2 min), 95% B (1.2-1.8 min), 95-20% B (1.81-2.2 min). The flow rate was 0.6 mL/minute. The column was maintained at 50° C.
Mass spectrometric analysis was performed using an AB Sciex API5000 with Turbo Ion Spray interface operating in a positive ionization mode. Quantification was performed using multiple reaction monitoring (MRM) method with the transitions of (m/z) 316.104→(m/z) 219.014 for Compound 1 and (m/z) 455.346→(m/z) 165 for verapamil (internal standard). Pharmacokinetics of Compound 1 ((E)-1-(3-(8-methoxy-2,3-dihydrobenzo[b][1,4]dioxin-6-yl)acryloyl)-5,6-dihydropyridin-2(1H)-one) in the plasma of the mice dosed intravenously (IV; 5 mg/kg), intraperitoneally (IP; 10 mg/kg) and orally (PO; 10 mg/kg) (n=3 per time point) is illustrated in FIG. 1.

The subject of series [2] is triple negative breast cancer (DU4475) cells. The experiment in a line: In vitro cell viability assay (CellTiter-Glo, ATP levels). The format is cell-based. The settings on record: Homo sapiens, DU-4475, 168 h, 7-day incubation, average IC50. As for the experimental part:
(§1) The present disclosure provides a method for inhibiting cell viability, as measured by ATP levels. The method for inhibiting cell viability is drawn to contacting various cancer cells with the compounds described herein at various concentrations. The cancer cell lines were maintained in culture conditions at 37° C. in an atmosphere of 5% CO2 in air. The cells growing in an exponential growth phase were harvested and counted for plating. Compounds were incubated in two cancer cell types representing multiple myeloma (MOLP-8) and triple negative breast cancer (DU4475). Cells were plated at an optimized cell numbers per well in 96-well plates and allowed to attach to the plates overnight at approximately 80% confluency.
(§2) After addition of compounds, plates were incubated for 7-day. At the end of incubation period on day 8, media was removed and replaced with a solution of CellTiter-Glo™ reagent (Promega®) according to protocol. Luminescence was read using an EnVision® multi-label plate reader (Perkin-Elmer®), and signal intensity was calculated relative to positive and negative control wells. Cisplatin was included as the positive control. A dose-response calculation was performed in a non-linear regression fit and by using the Hill equation to calculate a concentration-response curve and 50% inhibitory concentration (IC50) values for each compound. […]
Background: In ATP-based viability assays light output follows the ATP content of the culture.

Series [3] concerns multiple myeloma (MOLP-8) cells. Described as above. The format is cell-based. The settings on record: Homo sapiens, MOLP-8, 168 h, 7-day incubation, average IC50. As for the experimental part: as §1, §2
The test system of series [4] is collagen-induced arthritis. The series is described as follows: Collagen-induced arthritis in female Lewis rats. The series is classed as in vivo. The settings on record: 3 mg/kg QD PO, vs vehicle control rats.
Experimental: Animals were anesthetized with isoflurane and given intradermal injections of 400 μl (2×200 μl) of Porcine Type II collagen in Freund's incomplete adjuvant spread equally over two sites on the back on study days 0. On day 7, a boost injection was given; intradermal injections of 100 μl of Porcine Type II collagen in Freund's incomplete adjuvant. Collagen was prepared by making a 2 mg/ml solution in 0.01 N Acetic acid. Equal volumes of collagen and Freund's incomplete adjuvant were emulsified by hand mixing with the syringes partially submerged in ice water for 10 minutes, at which point a bead of this material will hold its form when placed in water.
On study day 6, the animals were randomized by body weight into treatment groups and dosing was initiated.
Efficacy evaluation was based on animal body weights, ankle caliper measurements, and final hind paw weights. Terminal serum was analyzed for anti-type II collagen antibody (IgG) concentrations.
The rats were weighed on day 6 for randomization, on day 9, and daily on days 11 through 17.
Caliper measurements of right and left ankle diameters were taken on study days 9 (baseline) and 11 through 17. Ankle caliper measurements were made with a digital micrometer (Digitrix II; Fowler & NSK). Baseline measurements were taken using one ankle with values rounded to one thousandth of an inch. […]

In the case of `COc1cc(/C=C/C(=O)N2CCC=CC2=O)cc2c1OCCO2` [Compound 1, (E)-1-(3-(8-methoxy-2,3-dihydrobenzo[b][1,4]dioxin-6-yl)acryloyl)-5,6-dihydropyridin-2(1H)-one], the half-life in series [1] (plasma, IP, 10 mg/kg) is 68.4 min; in series [1] (plasma, IV, 5 mg/kg), 99.6 min; in series [1] (plasma, PO, 10 mg/kg), 130 min.

The IC50 is the midpoint of a concentration-inhibition curve. The low end stands for inhibition by little substance, the high end for a need for much substance. Take `C/C(=C/c1ncccn1)C(=O)N1CCC=CC1=O` [Compound 49]: the results for the IC50 in series [2] and in series [3] were 5.06 µM and 6.11 µM, respectively.

As to `CCS(=O)(=O)N1CC(CC#N)(n2cc(-c3ncnc4[nH]ccc34)cn2)C1` [baricitinib], in series [4], the “reduction of ankle diameter measurements AUC” value was found to be 72% and the “reduction of final hind-paw weights” value was 71%.

`COc1cc(/C=C/C(=O)N2CCC=CC2=O)cc(OC)c1OC` [piperlongumine, 1-[(E)-3-(3,4,5-trimethoxyphenyl)prop-2-enoyl]-2,3-dihydropyridin-6-one]: the half-life was 64.2 min in series [1] (in vivo, IP, 10 mg/kg); 75.6 min in series [1] (in vivo, IV, 5 mg/kg); 78.6 min in series [1] (in vivo, PO, 10 mg/kg).
